Test [1] relates to RAW264.7 cells. As to the kind of experiment: Osteoclastogenesis: TRAP-positive multinucleated cells from RANKL-stimulated RAW264.7 cells. Format: cell-based, murine. As to conditions: RANKL 30 ng/ml, four days of culture, vs untreated cells, listed as Adenosine A2A receptor antagonist. The method, then:
Osteoclast formation was evaluated by quantification of TRAP-positive MNCs as described previously. TRAP is preferentially expressed at high levels in osteoclasts and is considered, especially in the mouse, to be an osteoclast marker. After incubation, cells on wells were washed in PBS, fixed in 4% paraformaldehyde for 10 min, and stained for acid phosphatase in the presence of 0.3 M sodium tartrate (Sigma-Aldrich). The substrate used was napthol AS-BI phosphate (Sigma-Aldrich). Only those cells that were strongly TRAP-positive (dark red) and have more than 3 nuclei were counted by light microscopy. To evaluate the size of the Osteoclast over time, we counted the number of nuclei per OCL in 50 OCLs for each of the three wells(n=150). The mean number of nuclei per OCL (MNN) and SE were calculated for each time-point, and ANOVA analysis was performed to determine statistically significant differences. RAW264.7 is a macrophage cell line having the capacity to form osteoclast-like cells. Because the RAW264.7 cells provide an excellent in vitro model for dissecting the cellular and molecular regulation of osteoclast differentiation and activation, we studied the effect of adenosine A2A receptors on the osteoclasts generated from the RAW264.7 cells. Cell Culture and Osteoclastogenesis. […]

Test [2] relates to TRAF6 protein. As to the kind of experiment: Western blotting of TRAF6 protein in RAW264.7 cells. Format: cell-based, murine. As to conditions: 1 μg/ml for 4 days, then RANKL 30 ng/ml, β-actin as comparison. As to the method: Western blotting. Osteoclast precursors were preincubated with or without CGS21680 (1 μg/ml) or ZM241385 (1 μg/ml) for 4 days and then stimulated with RANKL (30 ng/ml) for the indicated period. For isolation of total proteins, cells were washed twice with PBS and lysed in RIPA buffer. Proteins were estimated and boiled with sample buffer for 5 min and were subjected to electrophoresis on 10% SDS-PAGE. Proteins were transferred onto a nitrocellulose membrane. Membranes were blocked for 2 hours in blocking solution (5% nonfat dry milk in TBS containing 0.1% Tween 20) and exposed to primary Abs overnight at 4° C. After washing, the membranes were incubated for 1 hour at room temperature with secondary Ab, and the proteins were detected using ECL reagents according to the manufacturer's instructions. To reprobe the membranes with other Abs, the membranes were stripped with 100 mM 2-ME, 2% SDS, and 62.5 mM Tris-HCl (pH 6.9) for 20 min at 50° C., followed by immunoblotting as described above.

We go through two compounds from patent publication US8680070B2, “Medical implants containing adenosine receptor agonists and methods for inhibitiing medical implant loosening” (New York University, priority 2007, dated 2014).

For the compound `Nc1nc(NCCc2ccc(O)cc2)nc2nc(-c3ccco3)nn12` [adenosine A2A receptor antagonist, ZM241385], in test [1], the “osteoclast formation (number of multinucleated TRAP+ osteoclasts)” value is on record as “increased number”.

Regarding `CCNC(=O)[C@H]1O[C@@H](n2cnc3c(N)nc(NCCc4ccc(CCC(=O)O)cc4)nc32)[C@H](O)[C@@H]1O` [A2A receptor agonist, CGS 21680], the TRAF6 levels result in test [2] is “diminish”.
